Where “and” joins values, the source holds several entries; their conditions need not be identical. Equal entries are not always repeated.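 Exposure lasted 48 hours, with cells grown in 96-well plates and compounds tested at five concentrations. The concentration for 50% growth inhibition is given as GI50. TGI marks complete inhibition of growth.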
Tests used:
Assay in all cases: growth of human tumour cells (NCI), 48 h
[1] = tested on: HL-60(TB) leukemia
[2] = tested on: HOP-92 NSCLC
[3] = tested on: HT29 colon
[4] = tested on: OVCAR-4 ovarian
[5] = tested on: OVCAR-5 ovarian
[6] = tested on: RPMI-8226 leukemia
[7] = tested on: SNB-19 CNS
[8] = tested on: SNB-75 CNS
[9] = tested on: TK-10 renal
[10] = tested on: UO-31 renal

CCCCCCCCCCCCCCCCOC(=O)c1c(C)[nH]c(/C=C2\N=C(c3ccc[nH]3)C=C2OC)c1C
GI50 [1]: 0.151 µM | TGI [1]: > 100 µM | GI50 [2]: 0.2 µM | TGI [2]: 0.83 µM | GI50 [3]: 0.083 µM | TGI [3]: > 100 µM | GI50 [4]: 2.71 µM | TGI [4]: 53.6 µM | GI50 [5]: 0.718 µM | GI50 [6]: 0.0958 µM | TGI [6]: > 100 µM | GI50 [7]: 11.8 µM | TGI [7]: 80.3 µM | GI50 [8]: 2.47 µM | TGI [8]: 7.17 µM | GI50 [9]: 0.759 µM | TGI [9]: 3.36 µM | GI50 [10]: 1.21 µM | TGI [10]: 17.1 µM

Cc1cc(O)ccc1O
GI50 [1]: 2.64 µM | TGI [1]: 7.43 µM | GI50 [2]: 16.3 µM | TGI [2]: 31.2 µM | GI50 [3]: 49.8 µM | TGI [3]: > 100 µM | GI50 [4]: 15.6 µM | TGI [4]: 29 µM | GI50 [5]: 16.6 µM | TGI [5]: 32.1 µM | GI50 [6]: 9.26 µM | TGI [6]: 89.7 µM | GI50 [7]: 41.4 µM | TGI [7]: > 100 µM | GI50 [8]: 24.1 µM | TGI [8]: > 100 µM | GI50 [9]: 19.5 µM | TGI [9]: 35 µM | GI50 [10]: 13.4 µM | TGI [10]: 26.2 µM

C/C1=C\CC[C@@]2(C)O[C@@H]2C[C@@H]2[C@H](C/C(C)=C/CC1)OC(=O)C21CCN=N1 (stereo partly specified)
TGI [1]: > 100 µM | TGI [2]: > 75 µM | GI50 [3]: > 100 µM | TGI [3]: > 100 µM | TGI [4]: 75 µM | GI50 [5]: > 100 µM | TGI [5]: > 100 µM | GI50 [6]: > 100 µM | TGI [6]: 75 µM and > 100 µM | GI50 [7]: > 100 µM | TGI [7]: > 100 µM | GI50 [8]: > 100 µM | TGI [8]: 75 µM and > 100 µM | GI50 [9]: > 100 µM | TGI [9]: > 100 µM | GI50 [10]: > 100 µM | TGI [10]: > 100 µM

CCCCCCCCCCCCSC(=NC)NC
GI50 [1]: 1.86 µM | TGI [1]: 4.41 µM | GI50 [2]: 1.39 µM | TGI [2]: 5.49 µM | GI50 [3]: 2.06 µM | TGI [3]: 9.33 µM | GI50 [4]: 2.16 µM | TGI [4]: 5.61 µM | GI50 [5]: 1.83 µM | TGI [5]: 4.16 µM | GI50 [6]: 2.07 µM | TGI [6]: 4.77 µM | GI50 [7]: 3.06 µM | TGI [7]: 17.6 µM | GI50 [8]: 1.78 µM | TGI [8]: 3.55 µM | GI50 [9]: 1.71 µM | TGI [9]: 3.49 µM | GI50 [10]: 2.11 µM | TGI [10]: 5.64 µM

Oc1ccc2ccccc2c1C(c1ccc(Cl)cc1)c1c(O)ccc2ccccc12
TGI [1]: 4.91 µM | TGI [2]: 4.89 µM | TGI [3]: 9.78 µM | TGI [4]: 11.2 µM | TGI [5]: 12 µM | TGI [6]: 5.21 µM | TGI [7]: 19 µM | TGI [8]: 10.8 µM | TGI [9]: 11.1 µM | TGI [10]: 10.6 µM

COc1ccc(Cn2cc3c(c2-c2ccc(O)cc2)CCc2cnoc2-3)cc1
GI50 [1]: 0.221 µM | TGI [1]: 0.745 µM | GI50 [2]: 13.9 µM | TGI [2]: 33.4 µM | GI50 [3]: 0.587 µM | TGI [3]: 4.79 µM | GI50 [4]: 1.76 µM | TGI [4]: 19.6 µM | GI50 [5]: 0.829 µM | TGI [5]: 21.6 µM | GI50 [6]: 0.365 µM | TGI [6]: 6.36 µM | GI50 [7]: 0.586 µM | TGI [7]: 17.1 µM | GI50 [8]: 0.221 µM | TGI [8]: 0.676 µM | GI50 [9]: 0.603 µM | TGI [9]: 24.4 µM | GI50 [10]: 0.653 µM | TGI [10]: 18.7 µM

CC(C)[Si](OCC1CC(C[C@H]2CC(C[C@H]3C[C@@H](CO[Si](C(C)C)(C(C)C)C(C)C)OC(C)(C)O3)OC(C)(C)O2)OC(C)(C)O1)(C(C)C)C(C)C (stereo partly specified)
TGI [1]: > 100 µM | TGI [2]: > 100 µM | TGI [3]: > 100 µM | TGI [4]: > 100 µM | TGI [5]: > 100 µM | TGI [6]: > 100 µM | TGI [7]: > 100 µM | TGI [8]: > 100 µM | TGI [9]: > 100 µM | TGI [10]: > 100 µM

— PubChem BioAssay (NCI)
